≈ marks a conversion by molar mass, not a printed value.
Assays:
Experiment in all cases: ≥ marks a high value that may be exact or a test limit, other limits are often not marked, values filed in µg/mL are converted to µM
[1] = system: Bacillus subtilis ATCC 6633
[2] = system: Escherichia coli ATCC 25922
[3] = system: Listeria monocytogenes ATCC 7644
[4] = system: Salmonella enterica subsp. enterica serovar Typhi ATCC 6399
Shigella flexneri = system: Shigella flexneri
[5] = system: Staphylococcus aureus ATCC 25923
Streptococcus agalactiae = system: Streptococcus agalactiae
Bacillus subtilis 168 = system: Bacillus subtilis 168
[6] = system: Candida albicans F7-39/IDE99
Escherichia coli B = system: Escherichia coli B
[7] = system: Micrococcus luteus CCM 144
[8] = system: Pseudomonas aeruginosa ATCC 27853
Pseudomonas aeruginosa = system: Pseudomonas aeruginosa
Staphylococcus aureus 1 = system: Staphylococcus aureus 1
[9] = system: Staphylococcus aureus ATCC 43300
Staphylococcus aureus = system: Staphylococcus aureus
[10] = system: Staphylococcus epidermidis
[11] = system: Bacillus subtilis IFO 3513
[12] = system: Escherichia coli IFO 12734
[13] = system: Staphylococcus aureus IFO 12732
[14] = system: Bacillus subtilis ATCC 23857
[15] = system: Staphylococcus aureus USA 300
[16] = system: Staphylococcus epidermidis ATCC 35984
[17] = system: Acinetobacter sp. DSM 586
[18] = system: Arthrobacter globiformis VKM Ac-1112
[19] = system: Bacillus subtilis VKM B-501
[20] = system: Bacillus subtilis subsp. spizizenii DSM 347
[21] = system: Escherichia coli DH5alpha
[22] = system: Escherichia coli DSM 1116
Escherichia coli MH1 = system: Escherichia coli MH1
[23] = system: Pseudomonas aeruginosa PAO1
[24] = system: Saccharomyces cerevisiae Y190
[25] = system: Staphylococcus xylosus DSM 20267
Escherichia coli K-12 = system: Escherichia coli K-12

CC[C@H](C)[C@H](NC(=O)[C@H](CC(C)C)NC(=O)[C@H](CCCCN)NC(=O)[C@H](CC(C)C)NC(=O)[C@H](C)NC(=O)CNC(=O)[C@H](CCCCN)NC(=O)[C@H](C)NC(=O)[C@H](CC(C)C)NC(=O)[C@H](C)NC(=O)CNC(=O)[C@H](Cc1c[nH]c2ccccc12)NC(=O)[C@@H](N)Cc1ccccc1)C(=O)NCC(=O)N[C@H](C(=O)N[C@@H](CO)C(=O)N[C@@H](CC(C)C)C(=O)N[C@@H](Cc1ccccc1)C(=O)N[C@@H](CO)C(=O)N[C@@H](CO)C(=O)N[C@@H](Cc1ccccc1)C(=O)N[C@@H](CO)C(=O)N[C@@H](CCCCN)C(=O)N[C@@H](CCCCN)C(=O)N[C@@H](CC(=O)O)C(=O)O)C(C)C [FWGALAKGALKLIGVSLFSSFSKKD]
MIC [1]: ≥ 300 µM | MIC [2]: 300 µM (≈ 801 µg/mL) | MIC [3]: ≥ 300 µM | MIC [4]: ≥ 300 µM | MIC (Shigella flexneri): ≥ 300 µM | MIC [5]: 300 µM (≈ 801 µg/mL) | MIC (Streptococcus agalactiae): ≥ 300 µM

CC[C@H](C)[C@H](NC(=O)[C@H](CC(C)C)NC(=O)[C@H](CCCCN)NC(=O)[C@H](CC(C)C)NC(=O)[C@H](C)NC(=O)CNC(=O)[C@H](CCCCN)NC(=O)[C@H](C)NC(=O)[C@H](CC(C)C)NC(=O)[C@H](C)NC(=O)CNC(=O)[C@H](Cc1c[nH]c2ccccc12)NC(=O)[C@@H](N)Cc1ccccc1)C(=O)N[C@H](C(=O)NCC(=O)N[C@@H](CO)C(=O)N[C@@H](CC(C)C)C(=O)N[C@@H](Cc1ccccc1)C(=O)N[C@@H](CO)C(=O)N[C@@H](CO)C(=O)N[C@@H](Cc1ccccc1)C(=O)N[C@@H](CO)C(=O)N[C@@H](CCCCN)C(=O)N[C@@H](CCCCN)C(=O)N[C@@H](CC(=O)O)C(=O)O)C(C)C [FWGALAKGALKLIVGSLFSSFSKKD]
MIC [1]: ≥ 300 µM | MIC [2]: 300 µM (≈ 801 µg/mL) | MIC [3]: ≥ 300 µM | MIC [4]: ≥ 300 µM | MIC (Shigella flexneri): ≥ 300 µM | MIC [5]: 300 µM (≈ 801 µg/mL) | MIC (Streptococcus agalactiae): ≥ 300 µM

CC[C@H](C)[C@H](NC(=O)CN)C(=O)N[C@@H](CCSC)C(=O)N[C@@H](CO)C(=O)N[C@@H](CO)C(=O)N[C@@H](CC(C)C)C(=O)N[C@@H](CCSC)C(=O)N[C@@H](CCCCN)C(=O)N[C@@H](CCCCN)C(=O)N[C@@H](CC(C)C)C(=O)N[C@@H](C)C(=O)N[C@@H](CCCCN)C(=O)N[C@@H](Cc1cnc[nH]1)C(=O)N[C@H](C(=O)N[C@@H](C)C(=O)N[C@@H](CCCCN)C(N)=O)[C@@H](C)CC [GIMSSLMKKLAKHIAK]
MIC (Bacillus subtilis 168): 7 µM (≈ 12.3 µg/mL) | MIC [6]: 14 µM (≈ 24.6 µg/mL) | MIC (Escherichia coli B): 15 µM (≈ 26.3 µg/mL) | MIC [7]: 3 µM (≈ 5.27 µg/mL) | MIC [8]: 7.9 µM (≈ 13.9 µg/mL) | MIC (Pseudomonas aeruginosa): 20 µM (≈ 35.1 µg/mL) | MIC (Staphylococcus aureus 1): ≥ 35 µM | MIC [9]: 63 µM (≈ 111 µg/mL) | MIC (Staphylococcus aureus): 63 µM (≈ 111 µg/mL) | MIC [10]: 6.2 µM (≈ 10.9 µg/mL)

CC[C@H](C)[C@H](N)C(=O)N[C@@H](CC(C)C)C(=O)N1CCC[C@H]1C(=O)N[C@@H](CCCCN)C(=O)N[C@@H](CCCCN)C(=O)N[C@@H](Cc1c[nH]c2ccccc12)C(=O)N1CCC[C@H]1C(=O)N[C@@H](CCCCN)C(=O)N[C@@H](CC(C)C)C(=O)N1CCC[C@H]1C(=O)N[C@@H](Cc1c[nH]c2ccccc12)C(=O)N[C@@H](CCCN=C(N)N)C(=O)N[C@@H](CCCN=C(N)N)C(N)=O [ILPKKWPKLPWRR]
MIC [11]: 1.82 µM (≈ 3.13 µg/mL) | MIC [12]: 29.1 µM (≈ 50 µg/mL) | MIC [13]: 3.64 µM (≈ 6.25 µg/mL)

CC[C@H](C)[C@H](N)C(=O)N[C@@H](CC(C)C)C(=O)N1CCC[C@H]1C(=O)N[C@@H](Cc1c[nH]c2ccccc12)C(=O)N[C@@H](CCCCN)C(=O)N[C@@H](CC(C)C)C(=O)N1CCC[C@H]1C(=O)N[C@@H](Cc1c[nH]c2ccccc12)C(=O)N[C@@H](Cc1c[nH]c2ccccc12)C(=O)N1CCC[C@H]1C(=O)N[C@@H](Cc1c[nH]c2ccccc12)C(=O)N[C@@H](CCCN=C(N)N)C(=O)N[C@@H](CCCN=C(N)N)C(N)=O [ILPWKLPWWPWRR]
MIC [11]: 1.71 µM (≈ 3.13 µg/mL) | MIC [12]: 13.6 µM (≈ 25 µg/mL) | MIC [13]: 0.851 µM (≈ 1.56 µg/mL)

CC[C@H](C)[C@H](NC(=O)[C@H](C)NC(=O)[C@@H](N)CCSC)C(=O)N[C@H](C(=O)NCC(=O)N[C@H](C(=O)N[C@H](C(=O)N[C@H](C(=O)N[C@@H](CCCCN)C(=O)N[C@H](C(=O)N[C@H](C(=O)N[C@@H](CCCCN)C(=O)N[C@@H](C)C(=O)N[C@H](C(=O)N[C@H](C(=O)N[C@@H](CC(=O)O)C(=O)N[C@H](C(=O)N[C@@H](Cc1ccccc1)C(=O)N[C@@H](C)C(=O)N[C@@H](CCCCN)C(=O)O)[C@@H](C)CC)[C@@H](C)CC)[C@@H](C)CC)[C@@H](C)CC)[C@@H](C)CC)[C@@H](C)CC)[C@@H](C)CC)[C@@H](C)O)C(C)C [MAIVGTIIKIIKAIIDIFAK]
MIC [14]: ≥ 128 µM | MIC [2]: > 128 µM | MIC [15]: ≥ 64 µM | MIC [16]: ≥ 64 µM

CSCC[C@H](NC(=O)CNC(=O)[C@H](CO)NC(=O)[C@H](Cc1c[nH]c2ccccc12)NC(=O)[C@H](CCSC)NC(=O)[C@@H](N)CO)C(=O)N[C@@H](Cc1c[nH]c2ccccc12)C(=O)N[C@@H](CCCN=C(N)N)C(=O)N[C@@H](CCCN=C(N)N)C(=O)N[C@@H](CCCCN)C(=O)N[C@@H](CC(C)C)C(=O)N[C@@H](CCCCN)C(=O)N[C@@H](CCCCN)C(=O)N[C@@H](CC(C)C)C(=O)N[C@@H](CCCN=C(N)N)C(=O)N[C@@H](CC(N)=O)C(=O)N[C@@H](C)C(=O)N[C@@H](CC(C)C)C(=O)N[C@@H](CCCCN)C(=O)N[C@@H](CCCCN)C(=O)N[C@@H](CCCCN)C(=O)N[C@@H](CC(C)C)C(=O)N[C@@H](CCCCN)C(=O)NCC(=O)N[C@@H](CCC(=O)O)C(=O)O [SMWSGMWRRKLKKLRNALKKKLKGE]
MIC [17]: 1.3 µM (≈ 4 µg/mL) | MIC [18]: 0.5 µM (≈ 1.54 µg/mL) | MIC [19]: 1 µM (≈ 3.07 µg/mL) | MIC [20]: 1.3 µM (≈ 4 µg/mL) | MIC [21]: 1 µM (≈ 3.07 µg/mL) | MIC [22]: 1.3 µM (≈ 4 µg/mL) | MIC (Escherichia coli MH1): 0.7 µM (≈ 2.15 µg/mL) | MIC [23]: 4.1 µM (≈ 12.6 µg/mL) | MIC [24]: ≥ 33 µM | MIC [25]: 1.3 µM (≈ 4 µg/mL)

CSCC[C@H](NC(=O)[C@H](CO)NC(=O)[C@H](CCCCN)NC(=O)[C@H](Cc1c[nH]c2ccccc12)NC(=O)[C@@H](N)CO)C(=O)N[C@@H](C)C(=O)N[C@@H](CCCCN)C(=O)N[C@@H](CCCCN)C(=O)N[C@@H](CC(C)C)C(=O)N[C@@H](CCCCN)C(=O)N[C@@H](CCC(=O)O)C(=O)N[C@@H](Cc1ccc(O)cc1)C(=O)N[C@@H](CCSC)C(=O)N[C@@H](CCC(=O)O)C(=O)N[C@@H](CCCCN)C(=O)N[C@@H](CC(C)C)C(=O)N[C@@H](CCCCN)C(=O)N[C@@H](CCC(N)=O)C(=O)N[C@@H](CCCNC(=N)N)C(=O)N[C@@H](C)C(=O)O [SWKSMAKKLKEYMEKLKQRA]
MIC [17]: 3.22 µM (≈ 8 µg/mL) | MIC [18]: 0.3 µM (≈ 0.745 µg/mL) | MIC [19]: 1.2 µM (≈ 2.98 µg/mL) | MIC [20]: 6.44 µM (≈ 16 µg/mL) | MIC [2]: 40.3 µM (≈ 100 µg/mL) | MIC [21]: 2.5 µM (≈ 6.21 µg/mL) | MIC [22]: 3.22 µM (≈ 8 µg/mL) | MIC (Escherichia coli K-12): ≥ 100 µM | MIC (Escherichia coli MH1): 6 µM (≈ 14.9 µg/mL) | MIC [23]: > 40 µM | MIC [24]: 20 µM (≈ 49.7 µg/mL) | MIC [5]: 33.8 µM (≈ 84 µg/mL) | MIC [15]: ≥ 100 µM | MIC [25]: 3.22 µM (≈ 8 µg/mL)

Reference: DBAASP
